Results reported in patent US20220304957A1, “ANTI-CANCER COMPOSITIONS AND METHODS OF USE” (Board of Supervisors of Louisiana State University and …, priority 2019, published 2022).
Where two headings read alike, the source gives them in different places.

Tests used:
[1] = tested on: PPAR responsive elements (PPRE); assay: PPAR luciferase assay (PPRE reporter) in HepG2 cells; type: cell-based; details: 25 μM, 24 hrs
Method: Aliquots of 50 μM PP1 and FF in DMSO were added to 500 μl to heparinized human blood to a final concentration of 50 μM. Following incubation at 37° C. for the indicated time points, the samples were frozen at −80° C., and later prepared for HPLC-based detection of the compounds. Please note that FF is converted to FA in the presence of human blood. […] Data represent average values with standard deviation (n=3). panel B: Water solubility. FF and PP1, were added to water to a final concentration of 50 mM and sonicated in an ultrasonic bath (Branson 1510 Digital Heated Ultrasonic bath) for one hour at room temperature. The samples were then centrifuged for 10 minutes at 16000×g, and the supernatant filtered through 0.45 μm syringe filter. Water solubilized PP1 and FF were subsequently processed for HPLC analysis (see Methods). Data represent average values with standard deviation (n=3). panel C: Effects of PP compounds on PPAR responsive elements (PPRE). The PPAR transcriptional activity was determined in HepG2 cells by the JsTkpGL3 reporter plasmid, which contains a firefly luciferase gene driven by the PPRE, which consists of three copies of the J site from the apo-AII gene promoter. To normalize for efficiency of transfection the cells were additionally transfected with the pSV40-GLuc (New England Biolabs, Ipswich, Mass.) control plasmid. […] The luciferase activity was detected with Dual-Luciferase reporter assay system (Promega, Madison, Wis.), and the resulting luminescence measured with Synergy 2 microplate reader (BioTek, Winooski, Vt.). Data represent average values with standard deviation (n=6).
PPAR Luciferase Assay—The PPAR transcriptional activity was determined by utilizing the JsTkpGL3 reporter plasmid, which contains a firefly luciferase gene driven by the PPAR responsive element (PPRE), which consists of three copies of the J site from the apo-AII gene promoter. Together with JsTkpGL3 plasmid HepG2 cells were transfected with pSV40-GLuc (New England Biolabs, Ipswich, Mass.) control plasmid expressing Gaussia luciferase under the control of the constitutive SV40 early promoter to normalize for efficiency of transfection. […] The luciferase activity was detected with Dual-Luciferase reporter assay system (Promega, Madison, Wis.), and the resulting luminescence measured with Synergy 2 microplate reader (BioTek, Winooski, Vt.).

[2] = Toxicity in mice: body weight and histopathology; type: in vivo, C57BL/6 mice; details: 14 days
Method: Panel A: PP1 accumulation in different tissues following oral administration of PP1 (25 mg/kg). C57BL/6 mice were treated daily for 14 days, and the levels of PP1 in the blood, liver, spleen, kidney, heart, brain and in brain tumors, were evaluated by HPLC, as previously described. Data represent average values with standard deviation (n=3). Panel B: Body weight of C57BL/6 mice treated with PP1. Mice were treated with the PP1 at doses ranging from 25 to 75 mg/kg/day administered by oral gavage. Following 7 and 14 days of daily drug administration both control (DMSO-treated) and experimental (PP1-treated) mice were weighted. Data represent average values with standard deviation (at least three mice per group were included). In Panels A and B, tumor free and tumor bearing mice were included for the body weight measurement. Panels C, D and E: Intracranial growth of GL-261-Luc cells. C57 black mice, 6-8 weeks of age were anesthetized with 4% isoflurane and secured in a stereotaxic head frame (Harvard Apparatus, Holliston Mass.). GL-261-luc cells (1×10^5 cells in 2 μl; PerkinElmer Inc.) were injected into the brain parenchyma (coordinates: 3 mm anterior to Bregma; 1.5 mm lateral to Sagital suture; 3 mm down from surface) through a burr hole in the skull using a 10 μl Hamilton syringe. Panel C: Mice with large intracranial tumors were selected using bioluminescence imaging with Xenogen IVIS 200 system. Tumor size is expressed as radiance (photons/s/cm2/sr) and was quantified with the Living Image 4.1 software according to the manufacturer's recommendations (Xenogen). Panels D and E: Pathological evaluation of intracranial tumors and tissues. Following 14 days of drug administration (control: DMSO administered daily by oral gavage; PP1 50 mg/kg administered daily by oral gavage) the animals were euthanized, and the following organs were collected: liver, kidneys, spleen, heart, intact brain and intracranial tumors. The tissues were formalin-fixed, paraffin-embedded, and the resulting thin section were stained with hematoxylin and eosin (H&E) for a routine pathological evaluation.
Animal studies—All described procedures involving experimental animals were performed in accordance to the IACUC protocol #3444 at LSUHSC, New Orleans. C57BL/6NHsd mice, 11-12 weeks of age (Envigo), were anesthetized with 4% isoflurane and secured in a stereotaxic head frame (Harvard Apparatus, Holliston Mass.). […] The resulting images were evaluated and luminescence measurements from equivalent regions of interest encompassing the entire skull were collected using Living Image 4.1 software (Xenogen). […]

[3] = tested on: LN-229 human glioblastoma cells; details: for % cell death: 72-/96-hour time points

CN(CCO)C(=O)C(C)(C)Oc1ccc(C(=O)c2ccc(Cl)cc2)cc1 [PP1, 2-[4-(4-chlorobenzoyl)phenoxy]-N-(2-hydroxyethyl)-N,2-dimethylpropanamide]
effect on PPAR responsive elements (PPRE) [1]: attenuate
overall toxicity and body weight ([2]; 25-75 mg/kg/day oral gavage, tumor-free and tumor bearing mice): did not show any signs of overall toxicity and maintained their body weight
histology, heart, kidney and intact brain ([2]; oral gavage daily): did not show any signs of pathology
histology, liver ([2]; oral gavage daily): inflammation and focal necrotic areas in the liver
histology, spleen ([2]; oral gavage daily): enlarged spleen with accumulation of hemosiderin
% cell death ([3]; 5 μM): 74+/−3%
% cell death ([3]; 10 μM): 92+/−2%
cell death ([3]; 25 and 50 μM, 72- and 96-hour time points): extensive cell death
concentration triggering extensive glioblastoma cell death, fold lower than FF ([3]; in vitro): ~5 fold
